Data as given in the NIST ThermoML archive (doi:10.1016/j.jct.2012.09.004).

Columns and labels:
[1] = Pendant drop shape
[2] = refractive index (Na D-line) (dimensionless); conditions: 101.33 kPa, Liquid, Standard Abbe refractometry
[3] = refractive index (Na D-line) (dimensionless); wn = mass fraction of the nth substance listed; conditions: 101 kPa, Liquid, Standard Abbe refractometry
[4] = wn = mass fraction of the nth substance listed; conditions: Pendant drop shape

CC(CC(C)(C)C)CP(=O)([O-])CC(C)CC(C)(C)C.CCCCCCCCCCCCCC[P+](CCCCCC)(CCCCCC)CCCCCC
Conditions | refractive index | surface tension liquid-gas [mN/m]
[1], 297.9 K | – | 28.2
[1], 307.9 K | – | 27.6
[1], 317.7 K | – | 26.9
[1], 328.1 K | – | 26.2
[1], 338 K | – | 25.5
[1], 342.9 K | – | 25
[2], 283.15 K | 1.47702 | –
[2], 288.15 K | 1.47538 | –
[2], 293.15 K | 1.47374 | –
[2], 298.15 K | 1.47209 | –
[2], 303.15 K | 1.47044 | –
[2], 308.15 K | 1.46879 | –
[2], 313.15 K | 1.46712 | –
[2], 318.15 K | 1.46546 | –
[2], 323.15 K | 1.46383 | –
[2], 328.15 K | 1.46216 | –
[2], 333.15 K | 1.46056 | –
[2], 338.15 K | 1.45893 | –
[2], 343.15 K | 1.45716 | –
[2], 348.15 K | 1.45553 | –
[2], 353.15 K | 1.45387 | –

CCCCCCCCCCCCCC[P+](CCCCCC)(CCCCCC)CCCCCC.CS(=O)(=O)[O-] [trihexyltetradecylphosphonium methanesulfonate]
Conditions | refractive index | surface tension liquid-gas [mN/m]
[1], 298.3 K | – | 31
[1], 308 K | – | 30.3
[1], 318.5 K | – | 29.6
[1], 328.8 K | – | 28.8
[1], 338.7 K | – | 28.2
[1], 343.5 K | – | 27.9
[2], 283.15 K | 1.47813 | –
[2], 288.15 K | 1.47668 | –
[2], 293.15 K | 1.47507 | –
[2], 298.15 K | 1.47346 | –
[2], 303.15 K | 1.47186 | –
[2], 308.15 K | 1.47025 | –
[2], 313.15 K | 1.46865 | –
[2], 318.15 K | 1.46702 | –
[2], 323.15 K | 1.4654 | –
[2], 328.15 K | 1.4638 | –
[2], 333.15 K | 1.46217 | –
[2], 338.15 K | 1.46053 | –
[2], 343.15 K | 1.45895 | –
[2], 348.15 K | 1.45727 | –
[2], 353.15 K | 1.45572 | –

CCCCCCCCCCCCCC[P+](CCCCCC)(CCCCCC)CCCCCC.O=S(=O)([N-]S(=O)(=O)C(F)(F)F)C(F)(F)F + O
w2 = 0.0023
Conditions | refractive index | surface tension liquid-gas [mN/m]
[3], 298.15 K | 1.44921 | –
[3], 303.15 K | 1.44765 | –
[3], 308.15 K | 1.44606 | –
[3], 313.15 K | 1.44449 | –
[3], 318.15 K | 1.44293 | –
[3], 323.15 K | 1.44136 | –
[3], 328.15 K | 1.4398 | –
[3], 333.15 K | 1.43822 | –
[3], 338.15 K | 1.43669 | –
[3], 343.15 K | 1.43515 | –
[3], 348.15 K | 1.43362 | –
[3], 353.15 K | 1.43207 | –
[4], 298.1 K | – | 30.05
[4], 307.8 K | – | 29.33
[4], 318 K | – | 28.6
[4], 328 K | – | 27.91
[4], 338.6 K | – | 27.17
[4], 343.3 K | – | 26.88

CCCCCCCCCCCCCC[P+](CCCCCC)(CCCCCC)CCCCCC.N#C[N-]C#N [tetradecyl(trihexyl)phosphonium dicyanamide] + O
w2 = 0.0309
Conditions | refractive index | surface tension liquid-gas [mN/m]
[3], 298.15 K | 1.47866 | –
[3], 303.15 K | 1.47702 | –
[3], 308.15 K | 1.47535 | –
[3], 313.15 K | 1.47367 | –
[3], 318.15 K | 1.47207 | –
[3], 323.15 K | 1.47049 | –
[3], 328.15 K | 1.46893 | –
[3], 333.15 K | 1.46739 | –
[3], 338.15 K | 1.46586 | –
[3], 343.15 K | 1.46442 | –
[3], 348.15 K | 1.46302 | –
[3], 353.15 K | 1.46163 | –
[4], 298.2 K | – | 32.56
[4], 307.8 K | – | 31.8
[4], 318 K | – | 31.2
[4], 328 K | – | 30.5
[4], 338.8 K | – | 29.9
[4], 342.8 K | – | 29.5

CCCCCCCCCCCCCC[P+](CCCCCC)(CCCCCC)CCCCCC.[Cl-] [trihexyl(tetradecyl)phosphonium chloride] + O
w2 = 0.1334
Conditions | refractive index | surface tension liquid-gas [mN/m]
[3], 298.15 K | 1.46283 | –
[3], 303.15 K | 1.46133 | –
[3], 308.15 K | 1.45953 | –
[3], 313.15 K | 1.45768 | –
[3], 318.15 K | 1.45595 | –
[3], 323.15 K | 1.45425 | –
[3], 328.15 K | 1.45266 | –
[3], 333.15 K | 1.45124 | –
[3], 338.15 K | 1.44998 | –
[3], 343.15 K | 1.44892 | –
[3], 348.15 K | 1.44798 | –
[3], 353.15 K | 1.4471 | –
[4], 298.6 K | – | 30.81
[4], 308 K | – | 30.01
[4], 318.3 K | – | 29.2
[4], 328.7 K | – | 28.45
[4], 342.7 K | – | 27.43

CCCCCCCCCCCCCC[P+](CCCCCC)(CCCCCC)CCCCCC.CS(=O)(=O)[O-] [trihexyltetradecylphosphonium methanesulfonate] + O
w2 = 0.1181
Conditions | refractive index | surface tension liquid-gas [mN/m]
[3], 298.15 K | 1.45621 | –
[3], 303.15 K | 1.4546 | –
[3], 308.15 K | 1.45281 | –
[3], 313.15 K | 1.45111 | –
[3], 318.15 K | 1.44947 | –
[3], 323.15 K | 1.44795 | –
[3], 328.15 K | 1.44655 | –
[3], 333.15 K | 1.44532 | –
[3], 338.15 K | 1.44427 | –
[3], 343.15 K | 1.44334 | –
[3], 348.15 K | 1.44253 | –
[3], 353.15 K | 1.44181 | –
[4], 298.6 K | – | 31.15
[4], 307.8 K | – | 30.45
[4], 318 K | – | 29.81
[4], 323.8 K | – | 29.09
[4], 338.2 K | – | 28.29
[4], 342.7 K | – | 28.05

CCCCCCCCCCCCCC[P+](CCCCCC)(CCCCCC)CCCCCC.[Br-] [tetradecyltrihexylphosphonium bromide] + O
Conditions | refractive index | surface tension liquid-gas [mN/m]
[3], 298.15 K, w2 = 0.065 | 1.4782 | –
[3], 303.15 K, w2 = 0.065 | 1.47646 | –
[3], 308.15 K, w2 = 0.065 | 1.47465 | –
[3], 313.15 K, w2 = 0.065 | 1.47289 | –
[3], 318.15 K, w2 = 0.065 | 1.47115 | –
[3], 323.15 K, w2 = 0.065 | 1.46939 | –
[3], 328.15 K, w2 = 0.065 | 1.46765 | –
[3], 333.15 K, w2 = 0.065 | 1.46587 | –
[3], 338.15 K, w2 = 0.065 | 1.46414 | –
[3], 343.15 K, w2 = 0.065 | 1.46244 | –
[3], 348.15 K, w2 = 0.065 | 1.46078 | –
[3], 353.15 K, w2 = 0.065 | 1.45926 | –
[4], 298.1 K, w2 = 0.0665 | – | 31.4
[4], 307.9 K, w2 = 0.0665 | – | 30.35
[4], 318.1 K, w2 = 0.0665 | – | 29.64
[4], 328.1 K, w2 = 0.0665 | – | 28.95
[4], 338.9 K, w2 = 0.0665 | – | 28.2
[4], 344.2 K, w2 = 0.0665 | – | 27.91
